Results as given in patent publication US9689040B2, “Selective inhibitors of tumor-initiating cells” (Children's Medical Center Corporation, priority 2011, dated 2017).
Entries after “also recorded” stand apart in the source; their conditions may differ.

How the values were obtained:
[1] = system: luminal MCF7 and BT-474 cells; experiment: Viability of breast cancer cell lines treated with bortezomib (CellTiterGlo); format: cell-based, human
[2] = system: BPE cells; experiment: Apoptosis (Annexin V/PI flow cytometry, caspase 3 and PARP cleavage immunoblot); format: cell-based, human; details: clinically relevant / low dose, 24 hours
Experimental: (§1) BPLER were used as control. […] The percentage of double-positive cells is indicated.
(§2) To further define factors underlying such properties of BPLER cells, we first determined the molecular mechanism by which proteasome inhibition affects the growth of these cells.
(§3) Immunoblot was performed as described^41. Primary antibodies were as follows: cleaved Caspase 3 (Cell Signaling, rabbit polyclonal, 1:1000), PARP1 (Santa Cruz, rabbit polyclonal, 1:500), MCL1 (Cell Signaling, Rabbit polyclonal, 1:1000), Bim (Santa Cruz, rabbit polyclonal, 1:500), Bik (Cell Signaling, rabbit polyclonal, 1:1000), Puma (Cell Signaling, rabbit polyclonal, 1:1000), Noxa (Calbiochem, mouse monoclonal, 1:500), Bid (Santa Cruz, rabbit polyclonal, 1:500), Bad (Santa Cruz, rabbit polyclonal, 1:500). Antibodies were diluted in 5% milk in TBS-T and incubated O.N. at 4° C. Secondary mouse and rabbit HRP-conjugated antibodies were from Amersham. Protein signal was detected using the ECL Plus kit (Amersham). For flow cytometry, cells were stained as previously described^33, using the following fluorescent-conjugated antibodies: CD44 (BD Biosciences), CD24 (BD Biosciences), CD326 (ESA, Biolegend), Annexin V (Invitrogen). For immunofluorescence microscopy, cells were fixed in 2% PFA for 10 min, permeabilized with 1% Triton X in PBS for 5 min, and incubated with primary antibodies in 0.5% Triton X, 1% FBS in PBS for 30 min at RT. Antibodies were: CK18 (Santa Cruz, mouse monoclonal, 1:100) and CK14 (Millipore, mouse monoclonal, 1:100). After washing the cells were stained sequentially with AlexaFluor647-conjugated secondary antibody (Invitrogen, 1:200) and DAPI (Sigma, 1:5000). For immunohistochemistry, BPLER tumor sections were prepared from paraffin-embedded tissues, deparaffinized and treated with 10% citrate buffer for 15 min. Staining was performed using a BIOGENEX IHC DAB kit (Biogenex) following the manufacturer's protocol. Primary antibodies were: CK14 (Millipore, mouse monoclonal, 1:100), CK5 (Millipore, mouse monoclonal, 1:100), HH3 (Cell Signaling, rabbit polyclonal, 1:100), ER (Abcam, mouse monoclonal, 1:100), Vimentin (Invitrogen, mouse monoclonal 1:100), Ki67 (Millipore, mouse monoclonal, 1:100).

[3] = system: BPLER cells; experiment: as above; format: cell-based, human; details: clinically relevant / low dose, 24 hours
Experimental: as §1, §2, §3

[4] = system: HMLER cells; experiment: as above; format: cell-based, human; details: clinically relevant / low dose, 24 hours
Experimental: as §1, §2, §3

[5] = biological target: proteasome (Homo sapiens, UniProt P28074); experiment: Proteasome activity in BPLER tumors after treatment (ProteasomeGlo assay); format: in vivo, mouse; details: after 18 hours
Experimental: (6A) Proteasome activity in protein lysates from BPLER tumors 18 hours after intratumoral (i.t.), intraperithoneal (i.p) or intravenous (i.v.) treatment with bortezomib at the indicated dose, as determined by ProteasomeGlo assay. Proteasome activity in BPLER treated with bortezomib in vitro is shown as control. (6B-6E) Mean tumor volume (6B, 6D) in BPLER tumor-bearing mice after treatment with bortezomib or DMSO at the indicated dose, schedule and route of administration. Median tumor weight was measured at time of sacrifice (6C, 6E). […] (6F) Immunoblot analysis of protein lysates from BPLER tumors 18 hours after 1 intravenous dose of bortezomib at 1.6 mg/kg bortezomib or DMSO, showing efficient Noxa induction and caspase-3 and PARP1 cleavage after bortezomib treatment. (6G) Mean tumor volume in MB-468 tumor-bearing mice after intravenous treatment with 1.6 mg/kg bortezomib weekly. (6H) Schematic diagram illustrating generation of mouse TNBC primary tumor fragments for bortezomib-based therapy studies. […] 4T1-E tumors are shown as control. (6I, 6J) Mean V22 tumor volume (6I) after weekly intravenous infusion of bortezomib (1.6 mg/kg) or DMSO. Treatment was started 2 days after implantation of primary tumor fragments. […] The top and the bottom of each box represent the 75th and 25th percentile of tumor weight, respectively. Upper and lower whiskers represent maximum and minimum tumor weight, respectively. The black horizontal band in each box corresponds to median tumor weight.
Our data thus far indicate that highly malignant epithelial TNBC cells are selectively susceptible to proteasome inhibition. Bortezomib is already in the clinic for treatment of multiple myeloma and other lymphomas. […] To assess therapeutic efficacy, we administered bortezomib every 3 days (0.8 mg/kg i.t.) or weekly (1.6 mg/kg i.v.) after BPLER tumors, implanted in the flank of Nu/J mice, became palpable. BPLER tumor outgrowth was assessed by tumor volume during the treatment period and by tumor weight at the time of sacrifice. […]

[6] = system: mesenchymal MDA-MB-231 and MDA-MB-436 cells; details: MB-231, MB-436
[7] = system: unselected breast cancer patients; details: eight phase I/II studies, chemotherapy combination regimens with bortezomib; cited from earlier work
[8] = system: BPE, HMLER and BPLER cells; experiment: Cell cycle distribution (propidium iodide DNA staining)

Sequence of proteasome (P28074 60-263): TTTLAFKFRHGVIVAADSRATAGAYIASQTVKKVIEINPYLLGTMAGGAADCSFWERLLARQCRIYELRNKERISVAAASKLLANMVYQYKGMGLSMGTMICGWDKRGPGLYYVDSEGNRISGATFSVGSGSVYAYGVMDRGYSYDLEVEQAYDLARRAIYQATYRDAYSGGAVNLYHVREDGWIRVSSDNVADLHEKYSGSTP

CC(C)C[C@H](NC(=O)[C@H](Cc1ccccc1)NC(=O)c1cnccn1)B(O)O [bortezomib]
cytotoxicity at 0.0125 µM ([1]; Homo sapiens, luminal cells, 12.5 nM, 24 hr, read-out: decrease of cell viability): 5% | sensitivity of ER+ and HER2+ breast cancer cell lines ([1]; MCF7, BT-474): resistant | apoptosis (cleavage of caspase 3 and PARP) [2]: resistant to bortezomib-induced apoptosis | apoptosis (cleavage of caspase 3 and PARP) [3]: marked cleavage; also recorded: died of apoptosis | apoptosis (cleavage of caspase 3 and PARP) [4]: only partially; also recorded: minimal signs of apoptosis | proteasome inhibition in the tumor ([5]; 1.6 mg/kg i.v.): efficient proteasome activity inhibition | proteasome inhibition in the tumor ([5]; 1 dose 0.8 mg/kg i.p. or i.v.): less effective | proteasome inhibition in the tumor ([5]; 1 dose 0.8 mg/kg i.t.): Nearly complete proteasome inhibition | sensitivity of mesenchymal breast cancer cell lines [6]: resistant | partial response rates [7]: 10-20% | cell cycle distribution ([8]; BPE cells, 24 hours): underwent G2/M arrest | cell cycle distribution ([8]; BPLER cells, low dose): did not undergo cell cycle arrest | cell cycle distribution ([8]; HMLER cells, low dose): underwent G2/M arrest
